Values of other authors in patent US20220016310A1, “ANTIMICROBIAL SHAPE MEMORY POLYMERS” (THE TEXAS A&M UNIVERSITY SYSTEM, priority 2016, published 2022).

System: antibiotic-resistant bacteria (Enterobacter aerogenes, Escherichia coli, and Staphylococcus aureus)
Details: bacteria obtained from hospitals

**Q.** With O=C(O)C=Cc1ccccc1 [cinnamic acid] as the compound, how does the “Susceptibility of antibiotic-resistant bacteria” value read?
**A.** susceptible
